Measured values published in ChEMBL document CHEMBL5724914, “Linking interpersonal differences in gut microbiota composition and drug biotransformation activity” (2024).

assay: (§1) The drug is tested on Z-029 corresponding to rat gut metagenome with ENA study accession number: PRJEB37062 and ENA sample accession number: ERS12561828 for biotransformation under anaerobic condition. The drug concentrations were measured over 9 timepoints collected between 0 and 24 hours of incubation by liquid-chromatography-coupled mass spectrometry (LC–MS); settings: 2 µM
Also: call rule not given here.

Row | SMILES | Bacterial Biotransformation
1 | CC[C@@H](CO)NC(=O)[C@@H]1C=C2c3cccc4c3c(cn4C)C[C@H]2N(C)C1.O=C(O)/C=C\C(=O)O [METHYSERGIDE MALEATE] | Compound NOT metabolized
2 | CCOC(=O)[C@H](CCc1ccccc1)N[C@@H](C)C(=O)N1[C@H](C(=O)O)C[C@H]2CCCC[C@@H]21 [TRANDOLAPRIL] | Compound NOT metabolized

assay: as §1, with “on Z-018” for “on Z-029”, “to pig” for “to rat”, “number: ERS12561817” for “number: ERS12561828”; settings: 2 µM

Row | SMILES | Bacterial Biotransformation
3 | CC[C@@H](CO)NC(=O)[C@@H]1C=C2c3cccc4c3c(cn4C)C[C@H]2N(C)C1.O=C(O)/C=C\C(=O)O [METHYSERGIDE MALEATE] | Compound NOT metabolized
4 | CCOC(=O)[C@H](CCc1ccccc1)N[C@@H](C)C(=O)N1[C@H](C(=O)O)C[C@H]2CCCC[C@@H]21 [TRANDOLAPRIL] | Compound metabolized

assay: as §1, with “Z-012” for “Z-029”, “to” for “to rat gut”, “ERS12561812” for “ERS12561828”; settings: 2 µM

Row | SMILES | Bacterial Biotransformation
5 | CC[C@@H](CO)NC(=O)[C@@H]1C=C2c3cccc4c3c(cn4C)C[C@H]2N(C)C1.O=C(O)/C=C\C(=O)O [METHYSERGIDE MALEATE] | Compound NOT metabolized
6 | CCOC(=O)[C@H](CCc1ccccc1)N[C@@H](C)C(=O)N1[C@H](C(=O)O)C[C@H]2CCCC[C@@H]21 [TRANDOLAPRIL] | Compound NOT metabolized

assay: as §1, with “Z-007” for “Z-029”, “ERS12561807” for “ERS12561828”; settings: 2 µM

Row | SMILES | Bacterial Biotransformation
7 | CC[C@@H](CO)NC(=O)[C@@H]1C=C2c3cccc4c3c(cn4C)C[C@H]2N(C)C1.O=C(O)/C=C\C(=O)O [METHYSERGIDE MALEATE] | Compound NOT metabolized
8 | CCOC(=O)[C@H](CCc1ccccc1)N[C@@H](C)C(=O)N1[C@H](C(=O)O)C[C@H]2CCCC[C@@H]21 [TRANDOLAPRIL] | Compound NOT metabolized

assay: as §1, with “Z-005” for “Z-029”, “to” for “to rat gut”, “ERS12561805” for “ERS12561828”; settings: 2 µM

Row | SMILES | Bacterial Biotransformation
9 | CC[C@@H](CO)NC(=O)[C@@H]1C=C2c3cccc4c3c(cn4C)C[C@H]2N(C)C1.O=C(O)/C=C\C(=O)O [METHYSERGIDE MALEATE] | Compound NOT metabolized
10 | CCOC(=O)[C@H](CCc1ccccc1)N[C@@H](C)C(=O)N1[C@H](C(=O)O)C[C@H]2CCCC[C@@H]21 [TRANDOLAPRIL] | Compound metabolized

assay: as §1, with “on Z-003” for “on Z-029”, “to pig” for “to rat”, “number: ERS12561803” for “number: ERS12561828”; settings: 2 µM

Row | SMILES | Bacterial Biotransformation
11 | CC[C@@H](CO)NC(=O)[C@@H]1C=C2c3cccc4c3c(cn4C)C[C@H]2N(C)C1.O=C(O)/C=C\C(=O)O [METHYSERGIDE MALEATE] | Compound NOT metabolized
12 | CCOC(=O)[C@H](CCc1ccccc1)N[C@@H](C)C(=O)N1[C@H](C(=O)O)C[C@H]2CCCC[C@@H]21 [TRANDOLAPRIL] | Compound metabolized

assay: as §1, with “on WLS-350” for “on Z-029”, “to human” for “to rat”, “number: ERS12561789” for “number: ERS12561828”; settings: 2 µM

Row | SMILES | Bacterial Biotransformation
13 | CC[C@@H](CO)NC(=O)[C@@H]1C=C2c3cccc4c3c(cn4C)C[C@H]2N(C)C1.O=C(O)/C=C\C(=O)O [METHYSERGIDE MALEATE] | Compound NOT metabolized
14 | CCOC(=O)[C@H](CCc1ccccc1)N[C@@H](C)C(=O)N1[C@H](C(=O)O)C[C@H]2CCCC[C@@H]21 [TRANDOLAPRIL] | Compound NOT metabolized

assay: as §1, with “on WLS-240” for “on Z-029”, “to human” for “to rat”, “number: ERS12561773” for “number: ERS12561828”; settings: 2 µM

Row | SMILES | Bacterial Biotransformation
15 | CC[C@@H](CO)NC(=O)[C@@H]1C=C2c3cccc4c3c(cn4C)C[C@H]2N(C)C1.O=C(O)/C=C\C(=O)O [METHYSERGIDE MALEATE] | Compound NOT metabolized
16 | CCOC(=O)[C@H](CCc1ccccc1)N[C@@H](C)C(=O)N1[C@H](C(=O)O)C[C@H]2CCCC[C@@H]21 [TRANDOLAPRIL] | Compound metabolized

assay: as §1, with “on WLS-082” for “on Z-029”, “to human” for “to rat”, “number: ERS12561751” for “number: ERS12561828”; settings: 2 µM

Row | SMILES | Bacterial Biotransformation
17 | CC[C@@H](CO)NC(=O)[C@@H]1C=C2c3cccc4c3c(cn4C)C[C@H]2N(C)C1.O=C(O)/C=C\C(=O)O [METHYSERGIDE MALEATE] | Compound NOT metabolized
18 | CCOC(=O)[C@H](CCc1ccccc1)N[C@@H](C)C(=O)N1[C@H](C(=O)O)C[C@H]2CCCC[C@@H]21 [TRANDOLAPRIL] | Compound metabolized

settings: human gut metagenome, 24 h, 2 µM

Row | SMILES | Bacterial Biotransformation
19 | CC[C@@H](CO)NC(=O)[C@@H]1C=C2c3cccc4c3c(cn4C)C[C@H]2N(C)C1.O=C(O)/C=C\C(=O)O [METHYSERGIDE MALEATE] | Compound NOT metabolized
20 | CCOC(=O)[C@H](CCc1ccccc1)N[C@@H](C)C(=O)N1[C@H](C(=O)O)C[C@H]2CCCC[C@@H]21 [TRANDOLAPRIL] | Compound metabolized

settings: human gut metagenome, 24 h, 2 µM; remark: another data set of the same source

Row | SMILES | Bacterial Biotransformation
21 | CC[C@@H](CO)NC(=O)[C@@H]1C=C2c3cccc4c3c(cn4C)C[C@H]2N(C)C1.O=C(O)/C=C\C(=O)O [METHYSERGIDE MALEATE] | Compound NOT metabolized
22 | CCOC(=O)[C@H](CCc1ccccc1)N[C@@H](C)C(=O)N1[C@H](C(=O)O)C[C@H]2CCCC[C@@H]21 [TRANDOLAPRIL] | Compound NOT metabolized

settings: human gut metagenome, 24 h, 2 µM; remark: another data set of the same source

Row | SMILES | Bacterial Biotransformation
23 | CC[C@@H](CO)NC(=O)[C@@H]1C=C2c3cccc4c3c(cn4C)C[C@H]2N(C)C1.O=C(O)/C=C\C(=O)O [METHYSERGIDE MALEATE] | Compound NOT metabolized
24 | CCOC(=O)[C@H](CCc1ccccc1)N[C@@H](C)C(=O)N1[C@H](C(=O)O)C[C@H]2CCCC[C@@H]21 [TRANDOLAPRIL] | Compound NOT metabolized

settings: human gut metagenome, 24 h, 2 µM; remark: another data set of the same source

Row | SMILES | Bacterial Biotransformation
25 | CC[C@@H](CO)NC(=O)[C@@H]1C=C2c3cccc4c3c(cn4C)C[C@H]2N(C)C1.O=C(O)/C=C\C(=O)O [METHYSERGIDE MALEATE] | Compound metabolized
26 | CCOC(=O)[C@H](CCc1ccccc1)N[C@@H](C)C(=O)N1[C@H](C(=O)O)C[C@H]2CCCC[C@@H]21 [TRANDOLAPRIL] | Compound metabolized

settings: human gut metagenome, 24 h, 2 µM; remark: another data set of the same source

Row | SMILES | Bacterial Biotransformation
27 | CC[C@@H](CO)NC(=O)[C@@H]1C=C2c3cccc4c3c(cn4C)C[C@H]2N(C)C1.O=C(O)/C=C\C(=O)O [METHYSERGIDE MALEATE] | Compound metabolized
28 | CCOC(=O)[C@H](CCc1ccccc1)N[C@@H](C)C(=O)N1[C@H](C(=O)O)C[C@H]2CCCC[C@@H]21 [TRANDOLAPRIL] | Compound metabolized

settings: human gut metagenome, 24 h, 2 µM; remark: another data set of the same source

Row | SMILES | Bacterial Biotransformation
29 | CC[C@@H](CO)NC(=O)[C@@H]1C=C2c3cccc4c3c(cn4C)C[C@H]2N(C)C1.O=C(O)/C=C\C(=O)O [METHYSERGIDE MALEATE] | Compound NOT metabolized
30 | CCOC(=O)[C@H](CCc1ccccc1)N[C@@H](C)C(=O)N1[C@H](C(=O)O)C[C@H]2CCCC[C@@H]21 [TRANDOLAPRIL] | Compound metabolized

settings: human gut metagenome, 24 h, 2 µM; remark: another data set of the same source

Row | SMILES | Bacterial Biotransformation
31 | CC[C@@H](CO)NC(=O)[C@@H]1C=C2c3cccc4c3c(cn4C)C[C@H]2N(C)C1.O=C(O)/C=C\C(=O)O [METHYSERGIDE MALEATE] | Compound metabolized
32 | CCOC(=O)[C@H](CCc1ccccc1)N[C@@H](C)C(=O)N1[C@H](C(=O)O)C[C@H]2CCCC[C@@H]21 [TRANDOLAPRIL] | Compound metabolized

settings: human gut metagenome, 24 h, 2 µM; remark: another data set of the same source

Row | SMILES | Bacterial Biotransformation
33 | CC[C@@H](CO)NC(=O)[C@@H]1C=C2c3cccc4c3c(cn4C)C[C@H]2N(C)C1.O=C(O)/C=C\C(=O)O [METHYSERGIDE MALEATE] | Compound NOT metabolized
34 | CCOC(=O)[C@H](CCc1ccccc1)N[C@@H](C)C(=O)N1[C@H](C(=O)O)C[C@H]2CCCC[C@@H]21 [TRANDOLAPRIL] | Compound metabolized

settings: human gut metagenome, 24 h, 2 µM; remark: another data set of the same source

Row | SMILES | Bacterial Biotransformation
35 | CC[C@@H](CO)NC(=O)[C@@H]1C=C2c3cccc4c3c(cn4C)C[C@H]2N(C)C1.O=C(O)/C=C\C(=O)O [METHYSERGIDE MALEATE] | Compound NOT metabolized
36 | CCOC(=O)[C@H](CCc1ccccc1)N[C@@H](C)C(=O)N1[C@H](C(=O)O)C[C@H]2CCCC[C@@H]21 [TRANDOLAPRIL] | Compound metabolized

settings: human gut metagenome, 24 h, 2 µM; remark: another data set of the same source

Row | SMILES | Bacterial Biotransformation
37 | CC[C@@H](CO)NC(=O)[C@@H]1C=C2c3cccc4c3c(cn4C)C[C@H]2N(C)C1.O=C(O)/C=C\C(=O)O [METHYSERGIDE MALEATE] | Compound metabolized
38 | CCOC(=O)[C@H](CCc1ccccc1)N[C@@H](C)C(=O)N1[C@H](C(=O)O)C[C@H]2CCCC[C@@H]21 [TRANDOLAPRIL] | Compound metabolized

settings: human gut metagenome, 24 h, 2 µM; remark: another data set of the same source

Row | SMILES | Bacterial Biotransformation
39 | CC[C@@H](CO)NC(=O)[C@@H]1C=C2c3cccc4c3c(cn4C)C[C@H]2N(C)C1.O=C(O)/C=C\C(=O)O [METHYSERGIDE MALEATE] | Compound NOT metabolized
40 | CCOC(=O)[C@H](CCc1ccccc1)N[C@@H](C)C(=O)N1[C@H](C(=O)O)C[C@H]2CCCC[C@@H]21 [TRANDOLAPRIL] | Compound metabolized
